Results published in ChEMBL document CHEMBL3425492, “Dual high-resolution α-glucosidase and radical scavenging profiling combined with HPLC-HRMS-SPE-NMR for identification of minor and major constituents directly from the crude extract of Pueraria lobata” (J Nat Prod, 2015).
The source made the active and inactive calls. The calls are words filed in the database; no cut-off is given here.

How the values were obtained:
[1] = Antioxidant activity of the compound assessed as inhibition of ABTS radicals after 20 mins by spectrophotometric analysis; format: physicochemical
Saccharomyces cerevisiae = assay: Inhibition of Saccharomyces cerevisiae alpha-glucosidase type 1 assessed as 4-nitrophenol cleavage product by high-resolution biochromatogram

SMILES	inhibition (INH) [1]	Activity (Saccharomyces cerevisiae)
COc1ccc(-c2coc3cc(O)ccc3c2=O)cc1 [FORMONONETIN]	Not Active	–
COc1ccc(-c2coc3cc(O[C@@H]4O[C@H](CO)[C@@H](O)[C@H](O)[C@H]4O)ccc3c2=O)cc1 [ONONIN]	Not Active	–
COc1ccc(-c2coc3cc(O[C@@H]4O[C@H](COC(=O)CC(=O)O)[C@@H](O)[C@H](O)[C@H]4O)cc(O)c3c2=O)cc1	Not Active	–
O=c1c(-c2ccc(O)cc2)coc2cc(O[C@@H]3O[C@H](CO)[C@@H](O)[C@H](O)[C@H]3O)cc(O)c12 [GENISTIN]	Not Active	Active
O=c1c(-c2ccc(O)cc2)coc2c([C@@H]3O[C@H](CO)[C@@H](O)[C@H](O)[C@H]3O)c(O)ccc12 [PUERARIN]	Not Active	Active
COc1cc(-c2coc3cc(O[C@@H]4O[C@H](COC(=O)CC(=O)O)[C@@H](O)[C@H](O)[C@H]4O)ccc3c2=O)ccc1O	Not Active	–
O=c1c(-c2ccc(O)cc2)coc2cc(O)ccc12 [DAIDZEIN]	Active	Active
COc1ccc(C2=CC(=O)O[C@H]2Cc2ccc(O)cc2)c(O[C@@H]2O[C@H](CO)[C@@H](O)[C@H](O)[C@H]2O)c1	Not Active	Active
COc1ccc(-c2coc3cc(O[C@@H]4O[C@H](COC(=O)CC(=O)O)[C@@H](O)[C@H](O)[C@H]4O)ccc3c2=O)cc1	Not Active	–
O=Cc1c(-c2ccc(O)cc2O)oc2cc(O)ccc12	Active	–
COc1cc(-c2coc3cc(O[C@@H]4O[C@H](CO)[C@@H](O)[C@H](O)[C@H]4O)ccc3c2=O)ccc1O	Not Active	–
O=c1c(-c2ccc(O)cc2)coc2cc(O)cc(O)c12 [GENISTEIN]	Not Active	–
O=C(O)CC(=O)OC[C@H]1O[C@@H](Oc2ccc3c(=O)c(-c4ccc(O)cc4)coc3c2)[C@H](O)[C@@H](O)[C@@H]1O	Not Active	Active
COc1ccc(-c2coc3cc(O[C@@H]4O[C@H](CO)[C@@H](O)[C@H](O)[C@H]4O)cc(O)c3c2=O)cc1	Not Active	–
O=c1c(-c2ccc(O)cc2)coc2cc(O[C@@H]3O[C@H](CO)[C@@H](O)[C@H](O)[C@H]3O)ccc12 [DAIDZIN]	Not Active	Active
O=c1c(-c2ccc(O[C@@H]3O[C@H](CO)[C@@H](O)[C@H](O)[C@H]3O)cc2)coc2cc(O)ccc12	Not Active	–
O=C(O)CC(=O)OC[C@H]1O[C@@H](Oc2cc(O)c3c(=O)c(-c4ccc(O)cc4)coc3c2)[C@H](O)[C@@H](O)[C@@H]1O	Not Active	Active
